Assay results from article PMC7590151, “Chiral Cyclobutane-Containing Cell-Penetrating Peptides as Selective Vectors for Anti-Leishmania Drug Delivery Systems” (International Journal of Molecular Sciences, 2020).

Tested on: Leishmania donovani promastigotes
Assay: Viability of Leishmania donovani promastigotes (MTT reduction)
Assay type: cell-based
Conditions: L. donovani promastigotes 20 × 10^6 cells/mL, 4 h, 26 °C, full range of concentrations assayed (comparison 15 vs 16 at 5, 10 and 25 μM)
Description: The cellular viability in the presence of the peptides was assessed by the MTT reduction at both stages of the parasite after 4 h incubation (Figure 5).
The experiments were carried out with Leishmania donovani promastigotes (MHOM/SI/00/1S-2D strain) and Leishmania pifanoi amastigotes (MHOM/VE/60/Ltrod strain), respectively. Promastigotes were grown at 26 °C in RPMI medium supplemented with 10% of FCS, 2 mM L-glutamine, 20 U/mL unicillin 20 plus 48 µg/mL gentamicin.
The viability assays were carried out using the reduction of MTT as described. The parasites were aliquoted into 96-microwell plates at a final concentration of 20 × 10^6 cells/mL in HBSS supplemented with 10 mM D-glucose. The peptides were incubated for 4 h at the corresponding peptide concentration at 26 °C or 32 °C for promastigotes and axenic amastigotes, respectively. […] The resulting formazan was solubilized with […] (1% final concentration) and read at 595 nm in a Bio-Rad 640 microplate reader.
(a) L. pifanoi axenic amastigotes. […] Axenic Leishmania parasites (20 × 10^6 cells/mL) were incubated with the peptides, and MTT reduction measured immediately after 4 h incubation. […]
Figure 8 Viability of Leishmania donovani promastigotes treated with Dox-conjugates 15 and 16 along with Dox and Dox-TAT. Parasites were incubated with the respective reagents (20 × 10^6 cells/mL, 4 h, 26 °C), and MTT reduction measured afterwards. […]

## COc1cccc2c1C(=O)c1c(O)c3c(c(O)c1C2=O)C[C@@](O)(C(=O)CO)C[C@@H]3O[C@H]1C[C@H](N)[C@H](O)[C@H](C)O1 [doxorubicin]
  Toxicity towards promastigotes (in words): did not show any toxicity
